These results are taken from patent US10898504B2, “Substituted nucleoside analogues for use as PRMT5 inhibitors” (Janssen Pharmaceutica NV, priority 2016, dated 2021).

“And” between values parts separate entries of the source, which are not always exact repeats. Equal entries are not always repeated.

The subject of one test is A549 cells. Kind of test: PD assay (Assay 2): inhibition of nuclear symmetric Arginine dimethylation (SYM10 immunohistochemistry) in A549 cells. Type of test: cell-based. As to conditions: individual measurements shown; for IC50: Homo sapiens, A549, PD assay in A549 cells, read-out: pIC50 Assay 2 (converted); for pIC50 Assay 2: PD assay in A549 cells. The procedure: EXPERIMENTAL PROCEDURE PD ASSAY (ASSAY 2)
A549 cells (ATCC, Cat #CCL-185) were cultured in Dulbecco's Modified Eagle's Medium (DMEM) (Sigma, Cat #D5796), supplemented with 10% Fetal Calf Serum (FCS)(HyClone™, Cat #SV30160.03), 100 mM Sodium Pyruvate (Sigma, Cat #S8636), 200 mM L-Glutamine (Sigma, Cat #G7513) and 50 mg/mL Gentamycing (Gibco, Cat #15750-037).
Reagents used for buffers were purchased: Dulbecco's phosphate buffered saline (DPBS) without Ca/Mg (Sigma, Cat #D8537), phosphate buffered saline (PBS) 10× (Roche, Cat #11 666 789 001), Formalin solution 10% (Sigma, HT50-1-128-4L), MeOH 100% (Sigma, Cat #32213-2.5L), Triton X-100 (Acros, Cat #215680010), Bovine Serum Albumin (BSA) (Sigma, Cat #A2153), Alexa fluor 488 goat anti-rabbit antibody (Life Technologies, Cat #A11034), HCS CellMask Deep Red Stain (Life Technologies, Cat #H32721), Hoechst Stain (Life Technologies, Cat #33258), Anti-dimethyl-Arginine, sym (SYM10) antibody (Millipore, 07-412).
Immunohistochemistry Procedure
Cells were plated at 400 cells/40 μL/well in 384 well black plates μclear bottom (Perkin Elmer) and overnight incubated at 37° C., 5% CO2. The IC50 Studies were performed using nine point dosing series ranging from 10 μM to […] for each compound. 80 nL of the respective dilution of the compounds was added using the Labcyte POD 810 (Labcyte) reaching a final DMSO concentration of 0.2% in cell culture. After an incubation period of 48 h at 37° C. and 5% CO2, cells were fixed in 10% formalin solution for 15 min at r.t. and 20 min in ice-cold MeOH, after which they were washed 3× in DPBS. Subsequently, the cells were blocked for 1 h in blocking buffer (PBS+1% BSA and 0.5% Triton X-100) and incubated overnight at 4° C. with the SYM10 antibody diluted 1/2000 in blocking buffer. The cells were washed 3× with washing buffer (PBS+0.1% Triton X-100) and incubated with the Alexa fluor 488 goat anti-rabbit antibody diluted 1/200 in blocking buffer for 1 h at r.t. Subsequently, they were washed 3× with washing buffer and incubated for 30 min at r.t. with PBS containing a 1/5000 dilution of Hoechst Stain and a 1/5000 dilution of the HCS CellMask Deep Red Stain. After a final wash with PBS, the plates were imaged using the 10×W lens of the Opera® system (Perkin Elmer Life Sciences) using following settings (values in nm):
In the above equations, the following variable names are use: […]
In the above equations, the following controls were used for normalization: […]
Low control: minimum level of symmetrically dimethylated Arginines (cells treated with reference compound at 10 μM).
High control: maximum level of symmetrically dimethylated Arginines (DMSO treated cells).
IC50 and pIC50 (−log IC50) values were calculated using the appropriate software.
pIC50 values (Co. No. means compound number; n.d. means not determined).

Another test addresses T1, PRMT5-MEP50 enzyme (Homo sapiens, UniProt O14744).
T1 construct: One virus expresses full length human PRMT5 with Flag-tag at N-terminus
Kind of test: In vitro assay (Assay 1): PRMT5-MEP50 high throughput mass spectrometer assay, inhibition of SAH formation. The conditions noted are these: individual measurements shown, read-out: pIC50 Assay 1 (converted). It counts as biochemical. From the text:
EXPERIMENTAL PROCEDURES IN VITRO ASSAY (ASSAY 1)
PRMT5-MEP50 enzyme was purchased from Charles River (Argenta). The enzyme complex was produced in insect cells (Sf9) infected simultaneously with two baculoviruses. One virus expresses full length human PRMT5 with Flag-tag at N-terminus, the second virus expresses full length MEP50 with His6-TEV cleavage at N-terminus. The protein was affinity purified using anti-Flag (M2) beads eluted with 3×FLAG peptide, followed by His-Select eluted with 0.5M imidazole. Eluted protein was then dialysed against tris-buffered saline (TBS) (pH 8.0) containing 20% glycerol and 3 mM dithiothreitol (DTT).
Full-length untagged human recombinant histone H2A (residues 1-130, Genbank Accession #NM_021052, MW=14.1 kDa) expressed in E. coli was purchased from Reaction Biology Corporation, Cat #HMT-11-146. Reagents used for making reaction buffer or stopping reaction were purchased including Tris base (Sigma Cat #T-1503), NaCl (Sigma Cat #RGF-3270), MgCl2 (Sigma Cat #M0250), DTT (Invitrogen Cat #15508-013) and Formic Acid (Riedel deHaen, Cat #33015)
High Throughput Mass Spectrometer Assay
PRMT5 catalyzes the sequential methylations of the terminal nitrogen atoms on the guanidine groups of arginine residues within proteins using co-substrate S-adenosyl-L-methionine (AdoMet, SAM), forming mono-methyl (MMA), symmetric-dimethyl arginine (sDMA) and S-adenosyl-L-homocysteine (AdoHcy, SAH). The enzyme activity was determined by following the product SAH formation using high throughput mass spectrometry (Agilent Rapidfire 300 System coupled to a Sciex 4000 series QTrapm triple-quad MS/MS). The reaction buffer was 20 mM Tris-HC, pH 8.5, 50 mM NaCl, 5 mM MgCl2 and 1 mM DTT. The reaction activity was stopped using 1% formic acid (final concentration).
The IC50 Studies were performed using eleven point dosing series made for each compound by serially diluted 1:2 in dimethyl sulfoxide (DMSO), with point 12 being a DMSO control. Compounds were first spotted to plates, and followed by addition of 2 μM SAM and 0.6 μM H2A (histone H2A) solution mixture. The same volume of enzyme solution was added to initiate the enzymatic reactions. The final concentrations of the reaction are at 1 μM SAM, 0.3 μM H2A and 10 nM enzyme. The reaction was incubated at 30° C. for 60 minutes (min) and then quenched by addition of formic acid to a final concentration of 1%. The inhibitions of SAH formation in the presence of compounds were calculated as a percentage of the control relative to the uninhibited reaction as a function of inhibitor concentration. The data were fit as follows: Y=Bottom+(Top−Bottom)/(1+10^((log IC50−X)*h))
where IC50 is the inhibitor concentration (same unit as X) at 50% inhibition and h is the Hill slope. Y is percent of inhibition, X is log of compound concentration. Bottom and Top are the plateaus in same units as Y.

T1 sequence (O14744 whole entry): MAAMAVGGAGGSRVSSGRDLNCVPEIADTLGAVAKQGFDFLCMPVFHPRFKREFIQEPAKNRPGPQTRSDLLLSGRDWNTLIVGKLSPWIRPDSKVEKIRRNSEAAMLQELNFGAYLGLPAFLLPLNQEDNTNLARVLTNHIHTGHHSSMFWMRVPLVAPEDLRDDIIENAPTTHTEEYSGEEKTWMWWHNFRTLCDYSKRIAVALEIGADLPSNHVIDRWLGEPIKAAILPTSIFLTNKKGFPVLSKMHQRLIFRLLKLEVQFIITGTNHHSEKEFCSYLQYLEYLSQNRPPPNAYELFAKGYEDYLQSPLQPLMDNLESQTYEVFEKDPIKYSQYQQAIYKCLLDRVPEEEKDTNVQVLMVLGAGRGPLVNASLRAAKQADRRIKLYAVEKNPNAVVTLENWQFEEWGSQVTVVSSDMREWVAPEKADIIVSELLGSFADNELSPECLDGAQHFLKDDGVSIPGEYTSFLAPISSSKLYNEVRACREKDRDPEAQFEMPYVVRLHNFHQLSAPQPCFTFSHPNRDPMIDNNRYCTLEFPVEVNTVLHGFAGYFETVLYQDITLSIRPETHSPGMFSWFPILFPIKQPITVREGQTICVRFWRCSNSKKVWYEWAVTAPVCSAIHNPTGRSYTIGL
T1 sequence (Q9BQA1 whole entry partner): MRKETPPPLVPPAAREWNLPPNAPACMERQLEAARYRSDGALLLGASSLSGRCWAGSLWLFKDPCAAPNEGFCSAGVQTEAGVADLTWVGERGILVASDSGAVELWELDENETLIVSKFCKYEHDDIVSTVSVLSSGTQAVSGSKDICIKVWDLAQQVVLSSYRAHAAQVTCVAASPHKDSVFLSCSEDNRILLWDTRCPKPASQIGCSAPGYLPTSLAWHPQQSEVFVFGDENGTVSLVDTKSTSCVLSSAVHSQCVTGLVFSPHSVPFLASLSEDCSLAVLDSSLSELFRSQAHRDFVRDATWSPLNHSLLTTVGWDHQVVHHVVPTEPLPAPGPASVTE

Take `CN1CCCC2(C1)CN(C[C@H]1O[C@@H](n3cnc4c(N)ncnc43)[C@H](O)[C@@H]1O)C2` [Compound 12]: the IC50 with A549 cells was greater than 10000 nM; on PRMT5-MEP50 enzyme, 67600 nM.
The corresponding values for `CN1CCC2(CCCN2C[C@H]2O[C@@H](n3cnc4c(N)ncnc43)[C@H](O)[C@@H]2O)C1` (stereo partly shown) [Compound 13] are greater than 10000 nM and 955 nM.
As for `CN1CCC2(CCN(C[C@H]3O[C@@H](n4cnc5c(N)ncnc54)[C@H](O)[C@@H]3O)C2)C1` (stereo partly shown) [Compound 14], the results for the IC50 in the test on A549 cells and on PRMT5-MEP50 enzyme were greater than 10000 nM and 977 nM, respectively.
Turning to `CN1CCCC12CCN(C[C@H]1O[C@@H](n3cnc4c(N)ncnc43)[C@H](O)[C@@H]1O)C2` (stereo partly shown) [Compound 15], the IC50 in the test with A549 cells is greater than 10000 nM; at PRMT5-MEP50 enzyme, 29500 nM.
On to `CN1CCC2(CC1)CCN(C[C@H]1O[C@@H](n3cnc4c(N)ncnc43)[C@H](O)[C@@H]1O)C2` [Compound 16], for which the IC50 in the test on A549 cells was greater than 10000 nM; on PRMT5-MEP50 enzyme, 22400 nM.
For `CN1CC2(CCN2C[C@H]2O[C@@H](n3cnc4c(N)ncnc43)[C@H](O)[C@@H]2O)C1` [Compound 18] the same measures were greater than 10000 nM and 8510 nM.
In the case of `Nc1ncnc2c1ccn2[C@@H]1O[C@H](CN2CCCC23CCNCC3)[C@@H](O)[C@H]1O` [Compound 19], the “pIC50 Assay 2” value with A549 cells is 6.93 and 7.24. Further, the IC50 on PRMT5-MEP50 enzyme is 43.7 nM and 11.5 nM.
For `Nc1ncnc2c1c(F)cn2[C@@H]1O[C@H](CN2CCCC23CCNCC3)[C@@H](O)[C@H]1O` [Compound 24], the values for the IC50 in the test with A549 cells and at PRMT5-MEP50 enzyme were roughly 67.6 nM and 11.7 nM, respectively.
The corresponding values for `C[C@@]1(O)[C@H](O)[C@@H](CN2CCCC23CCNCC3)O[C@H]1n1cnc2c(N)ncnc21` [Compound 27] are greater than 10000 nM and 1350 nM.
For `Cc1nc(N)c2ccn([C@@H]3O[C@H](CN4CCCC45CCNCC5)[C@@H](O)[C@H]3O)c2n1` [Compound 28] the same measures were 1150 nM and 26.3 nM.
With `Nc1ncnc2c1ccn2[C@@H]1O[C@H](CN2CC(F)(F)CC23CCNCC3)[C@@H](O)[C@H]1O` [Compound 29], in the test with A549 cells, the IC50 is roughly 60.3 nM and the “pIC50 Assay 2” value is given as roughly 7.35. The IC50 on PRMT5-MEP50 enzyme was 10.2 nM and 7.59 nM.
`Cc1nc(N)c2ccn([C@@H]3O[C@H](CN4CCCC45CCN(C)CC5)[C@@H](O)[C@H]3O)c2n1` [Compound 30]: the IC50 in the test on A549 cells was 1740 nM; on PRMT5-MEP50 enzyme, 200 nM.
For `Nc1ncnc2c1ccn2[C@@H]1O[C@H](CN2CCOC3(CNC3)C2)[C@@H](O)[C@H]1O` [Compound 31] the same measures were roughly 1450 nM and 39.8 nM.
The corresponding values for `Nc1ncnc2c1ccn2[C@@H]1O[C@H](CN2CCOC3(CCCNC3)C2)[C@@H](O)[C@H]1O` (stereo partly shown) [Compound 32] are 9120 nM and 4470 nM.
`Nc1ncnc2c1ccn2[C@@H]1O[C@H](CN2CCCC3(COCCN3)C2)[C@@H](O)[C@H]1O` (stereo partly shown) [Compound 37]: the IC50 is 5370 nM in the test with A549 cells and 170 nM at PRMT5-MEP50 enzyme.
On to `Nc1ncnc2c1ccn2[C@@H]1O[C@H](CN2CCC3(CNCCC3(F)F)C2)[C@@H](O)[C@H]1O` (stereo partly shown) [Compound 38], for which the IC50 was 3890 nM in the test with A549 cells and 1620 nM at PRMT5-MEP50 enzyme.
For `Nc1ncnc2c1ccn2[C@@H]1O[C@H](CN2CCCC3(CCNC3)C2)[C@@H](O)[C@H]1O` (stereo partly shown) [Compound 40] the same measures were 407 nM and 6.31 nM.
For `Nc1ncnc2c1ccn2[C@@H]1O[C@H](CN2CC(C(F)(F)F)CC23CCNCC3)[C@@H](O)[C@H]1O` (stereo partly shown) [Compound 41] the same measures were greater than 10000 nM and 5750 nM.
The corresponding values for `Nc1ncnc2c1ccn2[C@@H]1O[C@H](CN2CCCC3(CNC3)C2)[C@@H](O)[C@H]1O` [Compound 45] are roughly 741 nM and 83.2 nM.
`NCCC1CN(C[C@H]2O[C@@H](n3ccc4c(N)ncnc43)[C@H](O)[C@@H]2O)CCO1` (stereo partly shown) [Compound 47]: the IC50 in the test on A549 cells is greater than 10000 nM; at PRMT5-MEP50 enzyme, 692 nM.
For `NCC1CN(C[C@H]2O[C@@H](n3ccc4c(N)ncnc43)[C@H](O)[C@@H]2O)CCO1` (stereo partly shown) [Compound 48] the same measures were roughly 2570 nM and 145 nM.
For the molecule `NC[C@H]1COCCN1C[C@H]1O[C@@H](n2ccc3c(N)ncnc32)[C@H](O)[C@@H]1O` [Compound 49], the IC50 is roughly 5130 nM in the test on A549 cells and 120 nM on PRMT5-MEP50 enzyme.
The corresponding values for `NCC1CCC(F)(F)CN1C[C@H]1O[C@@H](n2ccc3c(N)ncnc32)[C@H](O)[C@@H]1O` (stereo partly shown) [Compound 50] are 1510 nM and 44.7 nM.
Take `NCC1CCCN(C[C@H]2O[C@@H](n3ccc4c(N)ncnc43)[C@H](O)[C@@H]2O)C1` (stereo partly shown) [Compound 51]: the figures for the IC50 with A549 cells and on PRMT5-MEP50 enzyme were 1000 nM and 21.4 nM, respectively.
On to `NCC1CCCCN1C[C@H]1O[C@@H](n2ccc3c(N)ncnc32)[C@H](O)[C@@H]1O` (stereo partly shown) [Compound 52], for which the IC50 in the test with A549 cells is roughly 1120 nM; on PRMT5-MEP50 enzyme, 10.2 nM.
The corresponding values for `Nc1ncnc2c1ccn2[C@@H]1O[C@H](CN2CCCC(N)C2)[C@@H](O)[C@H]1O` (stereo partly shown) [Compound 53] are 891 nM and 28.8 nM.
For `Nc1ncnc2c1ccn2[C@@H]1O[C@H](CN2CCC(N)C2)[C@@H](O)[C@H]1O` (stereo partly shown) [Compound 54], the IC50 was greater than 10000 nM with A549 cells and 1550 nM at PRMT5-MEP50 enzyme.
The corresponding values for `NCCC1CCN(C[C@H]2O[C@@H](n3ccc4c(N)ncnc43)[C@H](O)[C@@H]2O)C1` (stereo partly shown) [Compound 55] are 6170 nM and 309 nM.
With `NCC1CCN(C[C@H]2O[C@@H](n3ccc4c(N)ncnc43)[C@H](O)[C@@H]2O)C1` (stereo partly shown) [Compound 56], the IC50 in the test on A549 cells was roughly 10000 nM; on PRMT5-MEP50 enzyme, 186 nM.
Turning to `NCC[C@@H]1CCCN1C[C@H]1O[C@@H](n2ccc3c(N)ncnc32)[C@H](O)[C@@H]1O` [Compound 57], the results for the IC50 in the test on A549 cells and on PRMT5-MEP50 enzyme were 158 nM and 11.2 nM, respectively.
